Measured values reported in patent US20230024438A1, “INHIBITORS OF HIF-2ALPHA” (ARCUS BIOSCIENCES, INC., priority 2019, published 2023).
Where two headings read alike, the source gives them in different places.

Columns and labels:
[1] = target: T1, Histidine tagged HIF-2α protein containing PAS-B domain (240-350) (Homo sapiens, UniProt Q99814); assay: HIF-2α Scintillation Proximity Assay (SPA); assay type: binding
T1 construct: Histidine tagged HIF-2α protein containing PAS-B domain (240-350) was prepared and purified in house; made in house
Protocol: Tritium labeled compound N-(3-chlorophenyl)-4-nitro-2,1,3-benzoxadiazol-5-amine was obtained from American Radiolabeled Chemicals Inc. and copper chelate PVT SPA beads were from PerkinElmer (Cat #RPNQ0095). Histidine tagged HIF-2α protein containing PAS-B domain (240-350) was prepared and purified in house.
Compounds solubilized in DMSO were dispensed into a white 384-well polystyrene non-binding flat clear bottom plate (Greiner Bio-One, Cat #781903) using an HP D300 dispenser. Ten microliters of HIS-tagged HIF-2α protein in buffer (25 mM Tris-HCl, pH 7.4, 150 mM NaCl, 0.15% BSA and 0.001% Tween 20) was added to the compound wells and allowed to incubate for 1 hour at room temperature. Ten microliters of SPA bead mix were added to the wells and incubated for an additional 45 minutes, followed by 10 ul of ^3H-tracer solution. Final assay conditions comprised 50 nM HIF-2α protein, 25 nM radiolabeled tracer and 3 ug beads per well with compounds in 2% DMSO. The plate was read using a MicroBeta Microplate Counter (PerkinElmer) for luminescence detection. The IC50 values of the test compounds were determined from compound dose response curves fitted using a standard four parameter fit equation and are reported in Table 1.

[2] = target: T2, HIF-2α (Homo sapiens, UniProt Q99814); assay: HIF-2α Luciferase Reporter Assay; assay type: cell-based
T2 construct: endogenous in cells; host or cells: 786-O cells (ATCC CRL-1932) stably carrying the Cignal Lenti HIF Luc Reporter
Protocol: Stable cell lines were generated by transducing 786-O cells (ATCC, CRL-1932) with Cignal Lenti HIF Luc Reporter lentivirus (CLS-007L, Qiagen) according to the manufacturer's guidelines. In brief, 0.3×10^6 786-0 cells were transduced with lentivirus at a Multiplicity of Infection (MOI) of 25 for 24 hours. After transduction, cells were replenished with fresh RPMI 1640 Medium (Cat. No. 11875085, Thermo Fisher,) supplemented with 10% FBS (Cat. No. A3160502, Gibco), 2 mM GlutaMax (Cat. No. 35050-061, Invitrogen) and 100 units of penicillin and 100 μg of streptomycin/mL (Cat. No 15070063, Thermo Fisher) for another 24 hours. Antibiotic selection was performed in cell media containing 4 μg/mL of Puromycin. After 7 days of antibiotic selection, stable pools of surviving cells were expanded and used in a luciferase reporter assay.
On day one, 20 uL of HIF-Luc-786-0 cells in OptiMem (Cat. No. 31985088, Thermo Fisher) were seeded into each well of a 384 well white opaque plate (Corning 3570) and incubated at 37° C. and 5% CO2. Twenty microliters of 2× test compounds in OptiMem were added to cells after 4 hours of incubation. Final assay conditions comprised 20,000 cells per well in 1% DMSO with test compound concentrations ranging from 50 uM to 0 uM. After 20 hours incubation at 37° C. and 5% CO2, luciferase activity was determined using ONE-Glo Luciferase Assay Reagent (E6110, Promega) following the manufacture's recommended procedure. Briefly, 40 uL of ONE-Glo luciferase reagents were added to each well and luciferase signals were measured using an Envision 2102 Multilabel Reader. Percentage maximum activity in each test well was calculated based on DMSO (maximum activity) and no cell control wells (baseline activity). The IC50 values of the test compounds were determined from compound dose response curves fitted using a standard four parameter fit equation.

[3] = 50 nM HIF-2α protein, 25 nM radiolabeled tracer, read-out: HIF-2α Scintillation Proximity Assay
[4] = HIF-Luc-786-0 cells, 20 hours incubation, luciferase activity, read-out: HIF-2α Luciferase Assay

T2 sequence (Q99814 whole entry): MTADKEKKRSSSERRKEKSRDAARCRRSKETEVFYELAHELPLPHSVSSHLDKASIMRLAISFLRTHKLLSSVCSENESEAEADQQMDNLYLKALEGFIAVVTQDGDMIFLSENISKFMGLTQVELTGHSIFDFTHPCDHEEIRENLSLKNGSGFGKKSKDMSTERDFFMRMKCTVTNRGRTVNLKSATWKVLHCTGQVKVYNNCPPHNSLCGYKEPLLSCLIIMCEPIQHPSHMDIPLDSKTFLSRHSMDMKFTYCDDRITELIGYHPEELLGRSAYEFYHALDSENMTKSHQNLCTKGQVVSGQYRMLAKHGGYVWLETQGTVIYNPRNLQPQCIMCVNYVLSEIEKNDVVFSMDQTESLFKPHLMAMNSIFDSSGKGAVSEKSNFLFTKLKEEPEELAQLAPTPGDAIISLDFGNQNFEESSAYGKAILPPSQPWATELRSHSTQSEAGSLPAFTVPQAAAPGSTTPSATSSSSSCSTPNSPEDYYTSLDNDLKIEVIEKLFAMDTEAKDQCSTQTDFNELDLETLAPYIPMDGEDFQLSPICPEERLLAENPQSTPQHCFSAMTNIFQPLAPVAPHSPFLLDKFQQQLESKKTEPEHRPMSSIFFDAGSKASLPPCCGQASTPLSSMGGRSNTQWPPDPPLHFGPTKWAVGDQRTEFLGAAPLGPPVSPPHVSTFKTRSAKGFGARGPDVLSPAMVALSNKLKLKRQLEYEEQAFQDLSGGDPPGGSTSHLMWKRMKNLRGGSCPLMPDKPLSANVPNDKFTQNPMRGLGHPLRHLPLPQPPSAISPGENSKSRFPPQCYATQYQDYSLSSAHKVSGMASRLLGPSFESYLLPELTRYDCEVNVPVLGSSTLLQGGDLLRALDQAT
T1 sequence (Q99814 240-350): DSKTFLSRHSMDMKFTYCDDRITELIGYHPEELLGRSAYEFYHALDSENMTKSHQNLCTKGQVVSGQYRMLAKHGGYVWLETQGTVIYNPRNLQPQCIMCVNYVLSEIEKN

SMILES	IC50 [1, 3] [µM]	IC50 [2, 4] [µM]	IC50 [1] [µM]	IC50 [2] [µM]
N#Cc1cc(F)cc(Nc2ccc(S(=O)(=O)C(F)(F)F)c3[nH]ncc23)c1 [Example 45, 3-Fluoro-5-[(7-trifluoromethanesulfonyl-1H-indazol-4-yl)amino] benzonitrile]	1 to 10	1 to 10		
CS(=O)(=O)c1ccc(Oc2cc(F)cc(Cl)c2)c2cn[nH]c12 [Example 7, 4-(3-Chloro-5-fluorophenoxy)-7-methanesulfonyl-1H-indazole]	> 10	> 10		
Cc1n[nH]c2c(S(=O)(=O)C(F)(F)F)ccc(Oc3cc(F)cc(C#N)c3)c12 [Example 58, 3-Fluoro-5-[(3-methyl-7-trifluoromethanesulfonyl-1H-indazol-4-yl)oxy]benzonitrile]	1 to 10	1 to 10		
O=S(=O)(c1ccc(NCc2ccc(F)cc2F)c2cn[nH]c12)C(F)(F)F [Example 53, N-[(2,4-difluorophenyl)methyl]-7-(trifluoromethylsulfonyl)-1H-indazol-4-amine]	> 10	> 10		
O=S(=O)(c1ccc(Oc2ccc(Cl)c(F)c2)c2cn[nH]c12)C(F)(F)F [Example 33, 4-(4-Chloro-3-fluorophenoxy)-7-(trifluoromethylsulfonyl)-1H-indazole]	> 10	> 10		
N#Cc1cccc(Oc2ccc(S(=O)(=O)C(F)(F)F)c3[nH]ncc23)c1 [Example 42, 3-[[7-(Trifluoromethylsulfonyl)-1H-indazol-4-yl]oxy]benzonitrile]	< 1	1 to 10		
CS(=O)(=O)c1ccc(Oc2ccc(F)cc2F)c2cn[nH]c12 [Example 4, 4-(2,4-Difluorophenoxy)-7-methanesulfonyl-1H-indazole]	> 10	> 10		
CS(=O)(=O)c1ccc(Nc2cc(F)cc(C#N)c2)c2c(F)n[nH]c12 [Example 2, 3-Fluoro-5-[(3-fluoro-7-methanesulfonyl-1H-indazol-4-yl)amino]benzonitrile]	> 10	1 to 10		
CS(=O)(=O)c1ccc(Oc2cc(F)cc(C#N)c2)c2c(C#N)n[nH]c12 [Example 10, 4-(3-Cyano-5-fluorophenoxy)-7-methanesulfonyl-1H-indazole-3-carbonitrile]	> 10	1 to 10		
N#Cc1cc(F)cc(Oc2cnc(C(F)(F)F)c3[nH]ncc23)c1 [Example 68, 3-Fluoro-5-{[7-(trifluoromethyl)-1H-pyrazolo[3,4-c]pyridin-4-yl]oxy}benzonitrile]	1 to 10	1 to 10		
O=S(=O)(c1ccc(Oc2ccc(F)c(F)c2)c2cn[nH]c12)C(F)(F)F [Example 37, 4-(3,4-Fifluorophenoxy)-7-(trifluoromethylsulfonyl)-1H-indazole]	1 to 10	1 to 10		
N#Cc1cc(F)cc(Oc2ccc(S(=O)(=O)C(F)(F)F)c3cn[nH]c23)c1 [Example 70, 3-Fluoro-5-[4-(trifluoromethylsulfonyl)-1H-indazol-7-yloxy]benzonitrile]	1 to 10	1 to 10		
O=S(=O)(c1ccc(NCc2ccc(F)cc2C(F)(F)F)c2cn[nH]c12)C(F)(F)F [Example 55, N-[[4-fluoro-2-(trifluoromethyl)phenyl]methyl]-7-(trifluoromethylsulfonyl)-1H-indazol-4-amine]	> 10	> 10		
N#Cc1cc(Oc2ccc(S(=O)(=O)C(F)(F)F)c3[nH]ncc23)cc(C(F)(F)F)c1 [Example 39, 3-(Trifluoromethyl)-5-[[7-(trifluoromethylsulfonyl)-1H-indazol-4-yl]oxy]benzonitrile]	1 to 10	1 to 10		
N#Cc1cc(F)cc(Oc2ccc(S(=O)(=O)C(F)(F)F)c3[nH]nc(C#N)c23)c1 [Example 60, 4-(3-Cyano-5-fluorophenoxy)-7-trifluoromethanesulfonyl-1H-indazole-3-carbonitrile]	> 10	1 to 10		
CS(=O)(=O)c1ccc(Oc2cc(F)cc(Cl)c2)c2c(Cl)n[nH]c12 [Example 9, 3-Chloro-4-(3-chloro-5-fluorophenoxy)-7-methanesulfonyl-1H-indazole]	> 10	1 to 10		
COc1ccc(Oc2ccc(S(=O)(=O)C(F)(F)F)c3[nH]ncc23)cc1 [Example 20, 4-(p-Methoxyphenoxy)-7-(trifluoromethylsulfonyl)-1H-indazole]	> 10	> 10		
O=S(=O)(c1ccc(Cc2cccc(Cl)c2)c2cn[nH]c12)C(F)(F)F [Example 59, 4-[(3-Chlorophenyl)methyl]-7-trifluoromethanesulfonyl-1H-indazole]	> 10	1 to 10		
N#Cc1cncc(Oc2ccc(S(=O)(=O)C(F)(F)F)c3[nH]ncc23)c1 [Example 24, 5-[(7-Trifluoromethanesulfonyl-1H-indazol-4-yl)oxy]pyridine-3-carbonitrile]	1 to 10	1 to 10		
N#Cc1cc(Oc2ccc(S(=O)(=O)C(F)(F)F)c3[nH]ncc23)ccc1F [Example 36, 2-Fluoro-5-[[7-(trifluoromethylsulfonyl)-1H-indazol-4-yl]oxy]benzonitrile]	1 to 10	> 10		
O=S(=O)(c1ccc(Oc2ccccc2)c2cn[nH]c12)C(F)(F)F [Example 16, 4-Phenoxy-7-(trifluoromethylsulfonyl)-1H-indazole]	> 10	1 to 10		
O=S(=O)(c1ccc(Oc2cncc(Cl)c2)c2cn[nH]c12)C(F)(F)F [Example 23, 4-[(5-Chloropyridin-3-yl)oxy]-7-trifluoromethanesulfonyl-1H-indazole]	1 to 10	1 to 10		
O=S(=O)(c1ccc(Nc2cc(F)cc(F)c2)c2cn[nH]c12)C(F)(F)F [Example 46, (3,5-Difluorophenyl)[7-(trifluoromethylsulfonyl)-1H-indazol-4-yl]amine]	1 to 10	> 10		
O=S(=O)(c1ccc(Oc2cccc(Cl)c2)c2cn[nH]c12)C(F)(F)F [Example 41, 4-(3-Chlorophenoxy)-7-(trifluoromethylsulfonyl)-1H-indazole]	< 1	1 to 10		
O=S(=O)(c1ccc(NCc2ccc(F)cc2)c2cn[nH]c12)C(F)(F)F [Example 52, N-[(4-fluorophenyl)methyl]-7-(trifluoromethylsulfonyl)-1H-indazol-4-amine]	> 10	> 10		
N#Cc1cc(F)cc(Oc2ccc(S(=O)(=O)C(F)F)c3[nH]nc(I)c23)c1 [Example 13, 5-[7-(Difluoromethylsulfonyl)-3-iodo-1H-indazol-4-yloxy]-3-fluorobenzonitrile]	> 10	1 to 10		
O=S(=O)(c1ccc(Oc2ccc(Cl)cc2)c2cn[nH]c12)C(F)(F)F [Example 17, 4-(p-Chlorophenoxy)-7-(trifluoromethylsulfonyl)-1H-indazole]	> 10	1 to 10		
N#Cc1cc(F)cc(Oc2ccc(S(=O)(=O)C(F)(F)F)c3[nH]ncc23)c1 [Example 15, 3-Fluoro-5-[(7-trifluoromethanesulfonyl-1H-indazol-4-yl)oxy]benzonitrile]			< 1	< 1
N#Cc1ccc(Oc2ccc(S(=O)(=O)C(F)(F)F)c3[nH]ncc23)cc1F [Example 34, 2-Fluoro-4-[[7-(trifluoromethylsulfonyl)-1H-indazol-4-yl]oxy]benzonitrile]	> 10	> 10		
O=S(=O)(c1ccc(NCc2ccccc2)c2cn[nH]c12)C(F)(F)F [Example 51, N-benzyl-7-(trifluoromethylsulfonyl)-1H-indazol-4-amine]	> 10	> 10		
